Data reported in article PMC9963587 (Molecules, 2023).
pIC50, pKd: −log10 of the molar value. Entries after “also recorded” stand apart in the source; their conditions may differ. Read-outs that look alike come from different tables or passages of the source.

Experiments:
[1] = test system: LASVpv (LASV pseudotyped virus bearing LASV GPC, Josiah strain); assay: microbe, parasite or virus in culture; assay type: cell-based, Lassa virus
LASV GP2 = LASV GP2 (Lassa virus, UniProt P08669); assay: biochemical; assay type: binding; settings: for kon: read-out: ka
Chain of LASV GP2 (P08669 260-491 limits assumed): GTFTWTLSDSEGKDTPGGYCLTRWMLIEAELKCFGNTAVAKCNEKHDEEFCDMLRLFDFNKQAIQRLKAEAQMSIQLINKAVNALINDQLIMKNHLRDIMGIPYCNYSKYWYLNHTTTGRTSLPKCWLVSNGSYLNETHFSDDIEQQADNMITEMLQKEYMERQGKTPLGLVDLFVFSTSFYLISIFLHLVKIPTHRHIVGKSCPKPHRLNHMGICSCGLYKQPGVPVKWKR

in vitro = settings: human
[2] = test system: VSV pseudotyped lentivirus (VSVpv); assay type: cell-based, vesicular stomatitis virus
[3] = Mammarenavirus lassaense, HEK293, 48 h

Row | Compound | pIC50 [1, 3] | pKd (LASV GP2) | kd (LASV GP2) | kon (LASV GP2) | melting point | CC50 (in vitro) | pIC50 [1] | inhibition of LASVpv infection (EGFP expression) [1] | antiviral effect against VSVpv infection [2] | pIC50 ([1]; read-out: IC50) | ka (LASV GP2) | pKd (LASV GP2; read-out: KD) | CC50 (HEK-293 cells)
1 | CC(C)Oc1ccc(-n2cnc3cc(/C=C\c4ccc(OC(F)F)cc4)ccc32)cc1 [Compound 7e−Z, (Z)-5-(4-(difluoromethoxy)styryl)-1-(4-isopropoxyphenyl)-1H-benzo[d]imidazole] | 7.46 | 5.70 | 0.08 s⁻¹ | 43400 M⁻¹ s⁻¹ | 173 to 174 °C | 17900 nM |  |  |  |  |  |  | 
2 | CCOc1ccc(/C=C\c2ccc3c(c2)ncn3-c2ccc(OC(C)C)cc2)cc1 [Compound 7d−Z, (Z)-5-(4-ethoxystyryl)-1-(4-isopropoxyphenyl)-1H-benzo[d]imidazole] | ≥ 7.82 | 6.51 | 0.02 s⁻¹ | 86500 M⁻¹ s⁻¹ | 161 to 162 °C | 17000 nM | 7.87 |  |  |  |  |  | 
3 | COc1ccc(-n2cnc3cc(NCc4ccc(O)c(OC)c4)ccc32)cc1 [Compound 13b, 2-methoxy-4-(((1-(4-methoxyphenyl)-1H-benzo[d]imidazol-5-yl)amino)methyl)phenol] | 7.18 | 5.41 | 0.20 s⁻¹ | 52300 M⁻¹ s⁻¹ | 157.6 to 159 °C | 87300 nM |  |  |  |  |  |  | 
4 | CC(C)Oc1ccc(-n2cnc3cc(/C=C\c4ccc(OC(F)(F)F)cc4)ccc32)cc1 [Compound 7f−Z, (Z)-1-(4-isopropoxyphenyl)-5-(4-(trifluoromethoxy)styryl)-1H-benzo[d]imidazole] | 7.47 | 5.66 | 0.03 s⁻¹ | 15600 M⁻¹ s⁻¹ | 161 to 162 °C | 9470 nM |  |  |  |  |  |  | 
5 | COc1ccc(-n2cnc3cc(NCc4cc(OC)c(OC)cc4OC)ccc32)cc1 [Compound 13d, 1-(4-methoxyphenyl)-N-(2,4,5-trimethoxybenzyl)-1H-benzo[d]imidazol-5-amine] | 7.86 | 6.18 | 0.03 s⁻¹ | 56700 M⁻¹ s⁻¹ | 167.8 to 169.8 °C | 135000 nM |  |  |  |  |  |  | 
6 | CC(C)Oc1ccc(-n2cnc3cc(/C=C/c4ccc5ccccc5c4)ccc32)cc1 [Compound 7h−E, (E)-1-(4-isopropoxyphenyl)-5-(2-(naphthalen-2-yl)vinyl)-1H-benzo[d]imidazole] | < 7.30 |  |  |  | 172 to 173 °C | > 100000 nM |  |  |  |  |  |  | 
7 | CC(C)Oc1ccc(-n2cnc3cc(/C=C/c4ccc(C(F)(F)F)cc4)ccc32)cc1 [Compound 7g−E, (E)-1-(4-isopropoxyphenyl)-5-(4-(trifluoromethyl)styryl)-1H-benzo[d]imidazole] | < 7.30 |  |  |  | 166 to 167 °C | > 100000 nM |  |  |  |  |  |  | 
8 | CC(C)Oc1ccc(-n2cnc3cc(/C=C\c4ccc5ccccc5c4)ccc32)cc1 [Compound 7h−Z, (Z)-1-(4-isopropoxyphenyl)-5-(2-(naphthalene-2-yl)vinyl)-1H-benzo[d]imidazole] | ≥ 7.82 | 6.89 | 0.03 s⁻¹ | 294000 M⁻¹ s⁻¹ | 170 to 171 °C | 18900 nM | 8.12 |  |  |  |  |  | 
9 | CCOc1ccc(/C=C/c2ccc3c(c2)ncn3-c2ccc(OC(C)C)cc2)cc1 [Compound 7d−E, (E)-5-(4-ethoxystyryl)-1-(4-isopropoxyphenyl)-1H-benzo[d]imidazole] | < 7.30 |  |  |  | 152 to 153 °C | > 100000 nM |  |  |  |  |  |  | 
10 | COc1ccc(-n2cnc3cc(NCc4cc(OC)c(O)c(OC)c4)ccc32)cc1 [Compound 13e, 2,6-dimethoxy-4-(((1-(4-methoxyphenyl)-1H-benzo[d]imidazol-5-yl)amino)methyl)phenol] | 7.30 | 5.36 | 0.22 s⁻¹ | 50300 M⁻¹ s⁻¹ | 115.7 to 118.1 °C | 88800 nM |  |  |  |  |  |  | 
11 | CC(C)Oc1ccc(-n2cnc3cc(/C=C/c4ccc(C#N)cc4)ccc32)cc1 [Compound 7b−E, (E)-4-(2-(1-(4-isopropoxyphenyl)-1H-benzo[d]imidazol-5-yl)vinyl) benzonitrile] | < 7.30 |  |  |  | 161 to 162 °C | > 100000 nM |  |  |  |  |  |  | 
12 | COc1ccc(-n2cnc3cc(NCc4ccc(Cl)c(Cl)c4)ccc32)cc1 [Compound 13i, N-(3,4-dichlorobenzyl)-1-(4-methoxyphenyl)-1H-benzo[d]imidazol-5-amine] | 7.27 | 4.60 | 0.49 s⁻¹ | 19400 M⁻¹ s⁻¹ | 134.1 to 135.8 °C | 81700 nM |  |  |  |  |  |  | 
13 | Cc1ccc(/C=C\c2ccc3c(c2)ncn3-c2ccc(OC(C)C)cc2)cc1 [Compound 7c−Z, (Z)-1-(4-isopropoxyphenyl)-5-(4-methylstyryl)-1H-benzo[d]imidazole] | 7.43 | 5.93 | 0.07 s⁻¹ | 65600 M⁻¹ s⁻¹ | 168 to 169 °C | 20900 nM |  |  |  |  |  |  | 
14 | CC(C)Oc1ccc(-n2cnc3cc(/C=C\c4ccc(C(C)(C)O)cc4)ccc32)cc1 [LHF−535, reference compound] | 8.52 | 6.94 | 0.03 s⁻¹ | 304000 M⁻¹ s⁻¹ |  | 3680 nM |  | concentration-dependent | little or no effect; also recorded: did not exhibit an antiviral effect |  |  |  | 
15 | COc1ccc(CNc2ccc3c(c2)ncn3-c2ccc(OC)cc2)cc1 [Compound 13g, N-(4-methoxybenzyl)-1-(4-methoxyphenyl)-1H-benzo[d]imidazol-5-amine] | 7.26 | 5.33 | 0.30 s⁻¹ | 65900 M⁻¹ s⁻¹ | 128 to 129.3 °C | 100000 nM |  |  |  |  |  |  | 
16 | COc1ccc(-n2cnc3cc(NCc4ccc(C(C)C)cc4)ccc32)cc1 [ST−193, reference compound] | 7.35 | 6.70 | 0.01 s⁻¹ | 83200 M⁻¹ s⁻¹ |  | 56300 nM |  |  |  |  |  |  | 
17 | COc1ccc(-n2cnc3cc(NCc4cccc(O)c4)ccc32)cc1 [Compound 13h, 3-(((1-(4-methoxyphenyl)-1H-benzo[d]imidazol-5-yl)amino)methyl)phenol] | < 7.00 | 4.44 | 0.42 s⁻¹ | 11900 M⁻¹ s⁻¹ | 182.9 to 184.3 °C | 40300 nM |  |  |  |  |  |  | 
18 | COc1ccc(-n2cnc3cc(NCc4ccc(C(C)(C)C)cc4)ccc32)cc1 [Compound 13f, N-(4-(tert-butyl)benzyl)-1-(4-methoxyphenyl)-1H-benzo[d]imidazol-5-amine] | 7.93 | 6.76 | 0.03 s⁻¹ | 178000 M⁻¹ s⁻¹ | 175.8 to 176.9 °C | 102000 nM |  |  |  |  |  |  | 
19 | CC(C)Oc1ccc(-n2cnc3cc(/C=C\c4ccc(C#N)cc4)ccc32)cc1 [Compound 7b−Z, (Z)-4-(2-(1-(4-isopropoxyphenyl)-1H-benzo[d]imidazol-5-yl)vinyl) benzonitrile] | < 7.30 | 4.13 | 0.28 s⁻¹ | 3910 M⁻¹ s⁻¹ | 165 to 166 °C | 23600 nM |  |  |  |  |  |  | 
20 | Cc1ccc(/C=C/c2ccc3c(c2)ncn3-c2ccc(OC(C)C)cc2)cc1 [Compound 7c−E, (E)-1-(4-isopropoxyphenyl)-5-(4-methylstyryl)-1H-benzo[d]imidazole] | < 7.30 |  |  |  | 168 to 170 °C | > 100000 nM |  |  |  |  |  |  | 
21 | CC(C)Oc1ccc(-n2cnc3cc(/C=C/c4ccc(C(C)(C)C)cc4)ccc32)cc1 [Compound 7a−E, (E)-5-(4-(tert-butyl)styryl)-1-(4-isopropoxyphenyl)-1H-benzo[d]imidazole] | < 7.30 |  |  |  | 161 to 162 °C | > 100000 nM |  |  |  |  |  |  | 
22 | N-(2, 4-dimethoxybenzyl)-1-(4-methoxyphenyl)-1H-benzo[d]imidazol-5-amine [Compound 13c] |  |  | 0.03 s⁻¹ |  |  |  |  |  |  | 7.81 | 39500 M⁻¹ s⁻¹ | 6.08 | 74200 nM
23 | CC(C)Oc1ccc(-n2cnc3cc(/C=C/c4ccc(OC(F)F)cc4)ccc32)cc1 [Compound 7e−E, (E)-5-(4-(difluoromethoxy)styryl)-1-(4-isopropoxyphenyl)-1H-benzo[d]imidazole] | < 7.30 |  |  |  | 173 to 174 °C | > 100000 nM |  |  |  |  |  |  | 
24 | COc1ccc(-n2cnc3cc(NCc4ccc(OC)c(O)c4)ccc32)cc1 [Compound 13a, 2-methoxy-5-(((1-(4-methoxyphenyl)-1H-benzo[d]imidazol-5-yl)amino)methyl)phenol] | 7.32 | 5.56 | 0.03 s⁻¹ | 13200 M⁻¹ s⁻¹ | 182.1 to 183.3 °C | 62600 nM |  |  |  |  |  |  | 
25 | COc1ccc(-n2cnc3cc(NCc4ccc(C(F)(F)F)cc4)ccc32)cc1 [Compound 13j, 1-(4-methoxyphenyl)-N-(4-(trifluoromethyl)benzyl)-1H-benzo[d]imidazol-5-amine] | 7.20 | 5.26 | 0.04 s⁻¹ | 8530 M⁻¹ s⁻¹ | 198.3 to 200.5 °C | 109000 nM |  |  |  |  |  |  | 
26 | CC(C)Oc1ccc(-n2cnc3cc(/C=C\c4ccc(C(C)(C)C)cc4)ccc32)cc1 [Compound 7a−Z, (Z)-5-(4-(tert-butyl)styryl)-1-(4-isopropoxyphenyl)-1H-benzo[d]imidazole] |  | 6.84 | 0.04 s⁻¹ | 328000 M⁻¹ s⁻¹ | 172 to 174 °C | 3010 nM |  |  |  |  |  |  | 
27 | CC(C)Oc1ccc(-n2cnc3cc(/C=C\c4ccc(C(F)(F)F)cc4)ccc32)cc1 [Compound 7g−Z, (Z)-1-(4-isopropoxyphenyl)-5-(4-(trifluoromethyl)styryl)-1H-benzo[d]imidazole] | 7.54 | 5.57 | 0.13 s⁻¹ |  | 165 to 166 °C | 24400 nM |  |  |  |  |  |  | 
28 | CC(C)Oc1ccc(-n2cnc3cc(/C=C/c4ccc(OC(F)(F)F)cc4)ccc32)cc1 [Compound 7f−E, (E)-1-(4-isopropoxyphenyl)-5-(4-(trifluoromethoxy)styryl)-1H-benzo[d]imidazole] | < 7.30 |  |  |  | 160 to 162 °C | > 100000 nM |  |  |  |  |  |  | 
